This is an account of results in PubChem BioAssay (NCI).

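Five concentrations, 48 hours, 96-well plates. The concentration for full growth arrest is given as TGI.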 Some results are limits rather than exact numbers.

Holding throughout (experiment): inhibition of tumour cell growth, NCI panel, 48 h
Test [1] relates to BT-549 breast.
Test [2] concerns HCT-15 colon.
Test [3] deals with HOP-92 NSCLC.
Test [4] relates to MDA-MB-231 breast.
Test [5] concerns NCI-H522 lung.
The test system of test [6] is OVCAR-8 ovarian.
The subject of test [7] is PC-3 prostate.
Test [8] relates to SK-MEL-28 melanoma.
Test [9] relates to SK-OV-3 ovarian.
Test [10] deals with UO-31 renal.

Consider `Cc1ccc2c3c1O[C@H]1c4nc5ccccc5cc4C[C@@]4(O)[C@@H](C2)N(CC2CC2)CC[C@]314`, for which the TGI in [1] is 25.5 µM; in test [2] it was 18.2 µM; in test [3], 58.3 µM; in test [4], 23.5 µM; in [5] it was 27.5 µM; in test [6], 22.6 µM. Besides, the TGI in test [7] was 26.5 µM; in [8] it was > 100 µM; in test [9], 31.3 µM; in [10], 22.2 µM.
With `CCn1c2c(c3c(C(=O)OC)c(O)ccc31)C(=O)c1ccccc1C2=O`, the TGI was 39.5 µM in test [1]; 30.1 µM in [2]; 32.8 µM in [3]; 51.5 µM in test [4]; 23.8 µM in [5]; 30.7 µM in test [6]. For the same compound, the TGI in test [7] worked out at 42.7 µM; in test [8] it was 42.6 µM; in [9], 30.4 µM; in test [10] it was 27.3 µM.
With `CN(C)Cc1cc(C(=O)O)cc(CN(C)C)c1O`, the TGI in test [1], in test [2], in test [3], in test [4], in test [5] and in [6] was > 100 µM each time. In addition, the TGI in test [7], in [8], in [9] and in test [10] was > 100 µM each time.
With `O=c1[nH]cnc2c1ncn2[C@H]1CO[C@@H](CO)[C@@H]1O`, the TGI in [1], in test [2], in [3], in [4], in test [5] and in test [7] was > 100 µM each time. In addition, the TGI in [8], in [9] and in test [10] was > 100 µM each time.
Take `COc1ccc(N=C/C=C/Nc2ccc(OC)cc2)cc1`: the TGI in test [1] amounted to 9.34 µM; in [2], 14.9 µM; in [3] it was 29.6 µM; in test [4], 6.02 µM; in [5], 23.7 µM; in test [6] it was 9.9 µM. Also, the TGI amounted to 26.1 µM in test [7], 29.1 µM in test [8], 34.3 µM in test [9] and 10.8 µM in [10].
In the case of `CC1=C(C#N)S(=O)(=O)c2c(oc(C)c2C)N1`, the TGI in test [1], in test [2], in [3], in test [4], in test [5] and in [6] was > 100 µM throughout. In addition, the TGI in test [7], in test [8], in [9] and in test [10] was > 100 µM throughout.
For `CN(C)c1ccc(C(c2ccc(N(C)C)cc2)c2ccc([N+](=O)[O-])cc2)cc1`, the TGI in [1], in test [2], in [3], in test [4], in test [5] and in [6] was > 100 µM in each case. The TGI in test [7], in test [8], in test [9] and in test [10] was > 100 µM each time.
For `COc1ccc2c(c1)CC[C@@H]1[C@@H]2CC[C@]2(C)/C(=N/OCCN3CCCCC3)CC[C@@H]12`, the TGI came out at 28.7 µM in test [1]; 6.23 µM in test [2]; 14.4 µM in [3]; 23.6 µM in test [4]; 18.9 µM in test [5]; 23.1 µM in test [6]. The TGI was determined as 17.7 µM in test [7], 5 µM in test [8], 23.7 µM in [9] and 10.7 µM in test [10].
As to `COC(=O)/C=C1/OC(c2ccccc2)=C(Cl)C1=O`, the TGI in test [1] was 40.3 µM; in test [2] it was 25.4 µM; in test [3] it was 42.7 µM; in test [4] it was 36 µM; in test [5], 33 µM; in test [6] it was 48.7 µM. Also, the TGI is 31.6 µM in [7], 42.5 µM in [8], > 100 µM in [9] and 49.2 µM in [10].
With `Cn1c2ccccc2n2c3nc4ccccc4nc3c(C#N)c12`, the TGI in test [1] is > 100 µM; in [2] it was > 100 µM; in test [3] it was > 100 µM; in test [4], > 100 µM; in [5], > 96.6 µM; in test [6], > 100 µM. The TGI in test [7], in test [8], in [9] and in test [10] was > 100 µM in each case.
As to `Cc1nc2ccccc2n1CCc1nc2ccccc2s1`, the TGI in [1], in test [2], in test [3], in test [4], in test [5] and in [6] was > 100 µM throughout. The TGI in test [7], in test [8] and in test [9] was > 100 µM throughout.
Turning to `CC[C@H]1C=CCC[C@@]2(C[C@@H]3CC[C@@H]4[C@H](C(=O)OCCCCCCCCCCCCCCCC(=O)N(CCCN)C[C@@H](O)CCN)[C@]5(CCC[C@@H](C)O5)NC(=[N+]34)N2)O1`, the TGI in [1] is 2.61 µM; in test [2], > 10 µM; in test [3], 1.01 µM; in test [4], 5.97 µM; in test [5], 0.573 µM; in test [6], 7.13 µM. In addition, the TGI in [7] is 1.96 µM; in [8], 2.9 µM; in test [9], 4.77 µM; in [10], 1.64 µM.
In the case of `CCCCNC(=S)Nc1nc(C(=O)NNS(=O)(=O)c2ccccc2)cs1`, the TGI in test [1] is 70.8 µM; in test [2], > 100 µM; in [3], > 100 µM; in test [4] it was 68.8 µM; in test [5], > 100 µM; in test [6], > 100 µM. Besides, the TGI in test [7] is 93.1 µM; in test [9] it was > 100 µM; in test [10], 85.3 µM.
